Reference: patent publication US7109014B1, “Diglycosidase isolated from microorganisms” (Amano Enzyme Inc., priority 1998, dated 2006)
Structures can show the parent of a compound that is named as a salt. Where two headings read alike, the source gives them in different places.

B1: diglycosidase derived from Aspergillus fumigatus: purified enzyme preparation of diglycosidase from Aspergillus fumigatus IAM 2046, single band of 47 kDa, SEQ ID NO: 8 (protein, listed as Aspergillus fumigatus)
chain: AASASAYCSNSAGNYKLSSIAAPVQGAGNPGSESTWQLTVDDTSSGHKQTIVGFGAAVTDATVTSFNTLSASVLQDLLNKLMTPAGANFALMRHTIGASDLSGDPAYTYDDNGGKADPSLSGFNLGDRGTAMAKMLATMKSLQPNLKILGSPWSAPGWMKLNGVLDGNTNNNNLNDGYLTSGGTGSTGYASQFAQYFVKYIQAYKNLGAHVDAITIQNEPLFSSAGYPTMYVYDYESAQLIQNYIGPALASAGLDTEIWAYDHNTDVPSYPQTVLNQAGQYVKSVAWHCYAPNVDWTVLSQFHNTNPGVKQYMTECWTPASGAWHQAADFTMGPLQNWASGVAAWTLGTNAQDGPHLSTGGCATCQGLVTINNGGYTLNTAYYMMAQFSKFMPPGAIVLNGSGSYTYSGGGGIQSVASLNPDGTRTVVIENTFGNDVYVTVTMKSGQKWSGNAPSQSVTTWVLPSA

Columns and labels:
[1] = tested on: Aspergillus fumigatus IAM 2046; test: Effects of inducers on the production of diglycosidase; type: cell-based; conditions: for activity at 0.1 %: Aspergillus fumigatus, IAM2046, 144 h, read-out: Inducing ability (%)
Description: Measurement of the activity was carried out using an automatic chemical analyzer (TBA-30R, manufactured by TOSHIBA CORP.). A 30 μl portion of each enzyme sample was mixed with 200 μl of acetate buffer solution (pH 5.5) containing 2 mM of p-nitrophenyl (pNP) primeveroside as the disaccharide glycoside substrate to carry out the reaction at 40° C. and at a cycle time of 22.5 seconds, for 9.75 minutes, and then the reaction solution was mixed with 250 μl of sodium carbonate to measure absorbance at 412 nm. Measurement of the sample blank was carried out in the same manner using 20 mM acetate buffer (pH 5.5) instead of the substrate solution.
Using Aspergillus fumigatus IAM 2046, effects of inducers on the production of diglycosidase were examined. Aspergillus fumigatus IAM 2046 was cultured for 6 days in a culture medium (2% soybean flour, 0.3% sodium chloride, 0.1% KH2PO4, 0.05% MgSO4.7H2O, 3% soluble starch) supplemented with 0.1% of each of various saccharides, and the diglycosidase activity was measured.

[2] = Thermal stability of diglycosidase (residual activity); type: physicochemical; conditions: pH 8, 1 hour, 30 to 55° C.
Description: Thermal stability of the purified preparation was examined by diluting it 100 times with 20 mM glycine NaCl—NaOH buffer (pH 8), treating the dilution at each temperature of from 30 to 55° C. for 1 hour and then measuring the residual activity. As a result, the activity was stable at a temperature of 50° C. or below.

[3] = Release of disaccharide and formation of aroma from eugenyl primeveroside; type: biochemical; conditions: 0.3 AU purified enzyme, 37° C., 24 hours
Description: eugenyl primeveroside solution adjusted to 5 mg/ml with 20 mM phosphate buffer (pH 6.0), the mixture was incubated at 37° C. for 24 hours and then the formation of aroma was examined by a sensory test (10 panel). […]
[…] […] These were not found in heat-inactivated enzyme solution.

[4] = Optimum temperature of diglycosidase; type: biochemical; conditions: pH 2.5, 20 minutes
Description: Its optimum temperature was measured in the following manner. A 400 μl portion of 2 mM pNP-primeveroside solution prepared using 20 mM disodium citric acid-HCl buffer (pH 2.5) was mixed with 90 μl of the enzyme solution to carry out the reaction at 30 to 65° C. for 20 minutes. The reaction was stopped by adding 500 μl of 0.5 M sodium carbonate solution, and the activity was determined by measuring the absorbance at 420 nm.

[5] = Sugar transfer in disaccharide unit by diglycosidase; type: biochemical; conditions: 55° C., 6 hours
Description: The purified enzyme of Example 6 was diluted with deionized water to adjust the activity to E1.0 AU/ml, and acetonitrile ([…]) containing 2.5% phenethyl alcohol, 20 mM acetate buffer (250 μl) containing 10% primeverose and the enzyme solution (50 μl) were mixed to carry out the reaction at 55° C. The reaction was completed after 6 hours and the reaction solution was mixed with 500 μl of diethyl ether, stirred and then centrifuged to remove free aglycon which was transferred into the ether layer. By applying the water layer to a Diaion HP-20 column and passing purified water through the column, free primeverose was removed. The disaccharide glycoside adsorbed to the resin was eluted with methanol and concentrated to dryness. This was dissolved in 100 μl of deionized water, and a 20 μl portion thereof was spotted on a TLC plate to detect the reaction product (the developing solvent was ethyl acetate:acetic acid:deionized water=3:1:1, acetic acid:methanol=1:4 solution was sprayed thereto after the development and allowed to stand at 105° C. for 10 minutes).

[6] = Release of disaccharide from pigment glycoside by TLC; type: biochemical; conditions: 5 mg/ml ruberythric acid, 37° C., 24 hours
Description: Release of disaccharide was examined using a disaccharide glycoside, ruberythric acid, as the substrate. Ruberythric acid was prepared by adsorbing a water extract of Rubia tinctorum L. root powder for staining use (available from Tanaka Senshoku Ten) to HP-20 column, washing the column with 50% methanol, and then eluting the compound with 100% methanol and evaporating the eluate to dryness using an evaporator. A substrate prepared by dissolving the thus recovered ruberythric acid in a phosphate buffer to a concentration of 5 mg/ml was mixed with the crude enzyme solution (0.3 AU) shown in Example 4 or the purified enzyme solution shown in Example 6 and incubated at 37° C. for 24 hours, and then the reaction solution was analyzed by TLC.

[7] = Release of primeverose from pNP-primeveroside by TLC; type: biochemical; conditions: 0.3 AU purified enzyme, 37° C., 24 hours
Description: Each of the crude enzyme solutions obtained in Examples 1 and 2 was concentrated using an ultrafiltration membrane having a molecular weight cutoff of 6,000. Next, 1 ml of the concentrated solution was mixed with 1 ml of a 5 mg/ml pNP-primeveroside solution which had been prepared using 20 mM phosphate buffer (pH 6.0), and the mixture was incubated at 37° C. Samples were collected 1, 2, 4, 24 and 48 hours thereafter to confirm release of primeverose by a thin layer chromatography (TLC).
A 0.3 AU portion of the purified enzyme solution obtained in Example 6 and the aforementioned pNP-primeveroside were incubated at 37° C. for 24 hours to examine release of disaccharide by TLC. […] Such a spot was not found by the heat-treated purified enzyme solution used as a control.

[8] = Optimum pH of diglycosidase; type: biochemical
Description: Its optimum pH was measured in the following manner. A 400 μl portion of 2 mM pNP-primeveroside solution which had been adjusted to a respective pH value of from pH 2 to 5 with 20 mM secondary citric acid-HCl buffer was incubated at 37° C. for 5 minutes. Next, this was mixed with 90 μl of the enzyme solution to carry out the reaction at 37° C. for 20 minutes. The reaction was stopped by adding 500 μl of 0.5 M sodium carbonate solution, and the activity measurement was carried out by measuring the absorbance at 420 nm.

[9] = medium supplemented with 0.1% of saccharide, cultured 6 days, diglycosidase activity, not added = 100

Row | Molecule | activity at 0.1 % [1, 9] [%] | Inducing ability (%) [1, 9] [%] | further results
1 | N[C@H]1C(O)O[C@H](CO)[C@@H](O)[C@@H]1O (some centres unmarked) [Glucosamine hydrochloride] | 157 | – | –
2 | OC[C@@H](O)[C@@H](O[C@H]1O[C@H](CO)[C@@H](O)[C@H](O)[C@H]1O)[C@H](O)[C@@H](O)CO [Maltitol] | – | 142 | –
3 | O=C[C@H](O)[C@@H](O)[C@@H](O)[C@H](O)CO [Galactose] | 125 | – | –
4 | OC[C@H]1O[C@@](CO)(O[C@H]2O[C@H](CO)[C@@H](O)[C@H](O)[C@H]2O)[C@@H](O)[C@@H]1O [Sucrose] | 116 | – | –
5 | Maltotriose | – | 171 | –
6 | Gentiobiose | – | 211 | inducing ability / producing ability of diglycosidase (in words) ([1]; 0.1% saccharide, 6 days): markedly high inducing ability
7 | O=C(CO)[C@@H](O)[C@H](O)[C@H](O)CO [Fructose] | – | – | activity at 0.1 % [1]: 143%
8 | OC[C@H]1O[C@H](O[C@H]2[C@H](O)[C@@H](O)C(O)O[C@@H]2CO)[C@H](O)[C@@H](O)[C@@H]1O (mixture of isomers) [Maltose] | 136 | – | –
9 | C[C@H](O)[C@H](O)[C@@H](O)[C@@H](O)C=O [Rhamnose] | 129 | – | –
10 | OC[C@@H](O)C(O)[C@H](O)CO [Arabitol] | – | 112 | –
11 | OC[C@H]1O[C@H](O[C@H]2O[C@H](CO)[C@@H](O)[C@H](O)[C@H]2O)[C@H](O)[C@@H](O)[C@@H]1O [Trehalose] | 113 | – | –
12 | OC[C@@H](O)[C@H](O)[C@H](O)[C@@H](O)CO [Galactitol] | 142 | – | –
13 | OC[C@H]1O[C@H](OC[C@H]2OC(O)[C@H](O)[C@@H](O)[C@@H]2O)[C@H](O)[C@@H](O)[C@@H]1O (some centres unmarked) [Isomaltose] | – | 145 | –
14 | B1 | – | – | temperature at which activity is stable [2]: ≤ 50 °C; release of disaccharide (TLC) [3]: release of a disaccharide was confirmed; release of eugenol (gas chromatography) [3]: confirmed; release of eugenol (sensory test) [3]: release of eugenol was also confirmed; activity at 60° C. [4]: 80%; transfer of disaccharide to phenethyl alcohol (TLC) [5]: transfers the diglycoside to phenethyl alcohol and thereby forms a disaccharide glycoside; release of primeverose and alizarin (TLC) [6]: release of the disaccharide primeverose and the aglycon alizarin was observed; release of disaccharide (TLC) [7]: release of a disaccharide was confirmed; activity at pH 3 (in words) [8]: sufficient activity
